Patent US20030095933A1, “Anti-aging skin care composition and uses thereof” (priority 2001, published 2003)

Tests used:
[1] = test system: facial skin of a human subject; assay: Topical application of aqueous solution to facial skin of a human subject before bedtime
Experimental: Topical Application of an Aqueous Solution of Vitamin C. A one gram tablet of Vitamin C (Ascorbic acid; GNC Brand, GNC, Inc.) was dissolved to completion in 1 tablespoon of water. The resulting solution was applied to the facial skin of a human subject immediately before bedtime.
Direct Comparisons of Aqueous Vitamin C Solution to Aqueous Vitamin C Solutions Containing Additional Ingredients. Several direct comparisons were performed to determine whether the addition of additional components could improve the results observed with Vitamin C alone. In the first of these tests, an aqueous solution comprising Vitamin C alone (3 g) was applied to one side of the subject's face immediately before bedtime, while an aqueous solution comprising 3 g of Vitamin C and 600 mg of N-acetyl-cysteine (GNC, Inc.) was applied to the other half of the subject's face at the same time.
A second comparison was then performed. In this study, an aqueous solution comprising Vitamin C (3 g) and Vitamin B5 (500 mg, obtained from GNC, Inc.) was applied to one side of the subject's face immediately before bedtime, while an aqueous solution comprising 3 g of Vitamin C, 600 mg of N-acetyl-cysteine and 10 mg zinc (GNC, Inc.) was applied to the other half of the subject's face at the same time.
Tablets containing 3 g of Vitamin C, 100 mg of Vitamin B1, 500 mg of Vitamin B5 and 500 mg of N-acetyl-cysteine, all obtained from obtained from GNC, Inc., were ground into a powder and mixed together. The mixture was then added to one tablespoon of water and allowed to dissolve to completion, which took approximately 10 hrs. The resulting solution was applied to the facial skin of a human subject immediately before bedtime.
Optimization of ranges for each of the components was determined. For example, the amount of Vitamin C present in the composition described above in Example 2 was varied from 0 g to 5 g.
In an attempt to reduce the slight irritation caused by application of the anti-aging skin care composition and to enhance its effects on fine lines and wrinkles, 100 mg of lipoic acid was added to the anti-aging skin care composition comprising 3 g of Vitamin C, 100 mg of Vitamin B1, 500 mg of Vitamin B5 and 500 mg of N-acetyl-cysteine. […] The resulting solution was again applied to the facial skin of a human subject immediately before bedtime.

[2] = Miscibility of Vitamin E with the aqueous Vitamin C solution; type: physicochemical; conditions: oils and powders containing Vitamin E
Experimental: Addition of Vitamin E Prevented by Poor Solubility. […] Thus, no further studies of the effects of the addition of Vitamin E to the various anti-aging skin care compositions described herein were performed.

redness or burning of the facial skin upon waking ([1]; after approximately 6-8 hrs of sleep)	sensation upon initial contact with the facial skin ([1]; immediately after application, before the solution dried)	Compound	appearance of the facial skin upon waking ([1]; after approximately 6-8 hrs of sleep, overnight application)	redness and irritation following subsequent applications ([1]; subsequent applications, dose of Vitamin C increased to 2 g and up to 5 g)	miscibility with the aqueous solution containing Vitamin C [2]
slight redness of the facial skin	slight burning sensation	O=C1O[C@H]([C@@H](O)CO)C(O)=C1O [Vitamin C, Ascorbic acid]	noticeably improved	subsided greatly	
		Vitamin E			neither oils nor powders containing Vitamin E were miscible
